According to patent US10603345B2, “Pharmaceutical composition for treating respiratory disease” (Kunming Institute of Botany, The Chinese Academy of Sciences, priority 2015, dated 2020):

Tests used:
Format in all cases: in vivo
[1] = test system: IgE in serum of asthma model mouse; assay: Effect on IgE in serum of asthma model mouse; conditions: ELISA, ig 7 d, dose/kg: dexamethasone 2.0 mg, Test group 1 50, 2 25, picrinine 5.0, vallesamine 3.0, scholaricine 3.0, 19-epi-scholaricine 3.5 mg, x ± SD
Experimental: (§1) Animal source: 25˜30 g male ICR mouse, from laboratory animal department of Kunming Medical University, License No. SCXK (Dian) 2011-0004.
(§2) Method and route: ovalbumin (OVA) was used to induce mouse asthma model, and after intragastrical administration for 7 d at a dose of 20 mL/kg, the animal was sacrificed at the eighth day.
(§3) Test group 1: picrinine, vallesamine, scholaricine and 19-epischolaricine prepared in Example 1.7 were homogeneously mixed at different ratios by weight (50 mg/kg), Test group 2: the alkaloid composition prepared in Example 1.4 (25 mg/kg). […]
(§4) Sample preparation: all the samples were prepared by using 0.5% carboxymethylcellulose sodium (0.5% CMC-Na).
Group and dose: In Test group 1, the ratio of picrinine, vallesamine, scholaricine and 19-epischolaricine by weight was 30:33:27:6, and the other groups and doses thereof were as described in Example 11.
Test index: immunoglobulin IgE in serum was used as index, and was determined by enzyme linked immunosorbent assay.

[2] = test system: SOD in serum and BALF of asthma model mouse; assay: Effect on SOD in serum and BALF of asthma model mouse; conditions: ig 7 d, dose/kg: dexamethasone 2.0 mg, Test group 1 50, 2 25, picrinine 5.0, vallesamine 3.0, scholaricine 3.0, 19-epi-scholaricine 3.5 mg, x ± SD; for SOD lavage fluid: BALF
Experimental: as §1, §2, §3, §4
Group and dose: in Test group 1, the ratio of picrinine, vallesamine, scholaricine and 19-epischolaricine by weight was 12:10:9:2, and the other groups and doses thereof were as described in Example 11.
Test index: SOD in serum and BALF was used as index, and was determined by xanthine oxidase method.

[3] = test system: Eotaxin in serum of asthma model mouse; assay: Effect on Eotaxin in serum of asthma model mouse; conditions: ELISA, ig 7 d, dose/kg: dexamethasone 2.0 mg, Test group 1 50, 2 25, picrinine 5.0, vallesamine 3.0, scholaricine 3.0, 19-epi-scholaricine 3.5 mg, x ± SD
Experimental: as §1, §2, §3, §4
Group and dose: in Test group 1, the ratio of picrinine, vallesamine, scholaricine and 19-epischolaricine by weight was 37:42:30:8, and the other groups and doses thereof were as described in Example 11.
Test index: eosinophil chemotactic factor (Eotaxin) in serum was used as index, and was determined by enzyme linked immunosorbent assay.

[4] = test system: IL-6 in serum of COPD model mouse; assay: Effect on IL-6 in serum of COPD model mouse; conditions: ELISA, ig 7 d, dose/kg: dexamethasone 1 mg, Test group 1 50, 2 25, 3 10, picrinine 10, vallesamine 6, scholaricine 7, 19-epi-scholaricine 2 mg, x ± SD
Experimental: as §1
(§5) Method and route: lipopolysaccharide (LPS) plus smoke exposure was used for 30 days to induce mouse chronic obstructive pulmonary disease model; and after intragastrical administration for 7 d at a dose of 20 mL/kg, the animal was sacrificed at the eighth day.
(§6) Picrinine group (10 mg/kg), Vallesamine group (6.0 mg/kg), Scholaricine group (7.0 mg/kg), 19-epischolaricine group (2.0 mg/kg).
as §4
Group and dose: in Test group 1, the ratio of picrinine, vallesamine, scholaricine and 19-epischolaricine by weight was 38:30:27:7, and the other groups and doses thereof were as described in Example 10.
Test index: IL-6 in serum was used as index, and was determined by enzyme linked immunosorbent assay.

[5] = test system: WBC count and eosinophil percentage in BALF of asthma model mouse; assay: Effect on WBC count and eosinophil percentage in BALF of asthma model mouse; conditions: OVA-induced asthma mouse, ig 7 d, dose/kg: dexamethasone 2 mg, Test group 1 50, 2 25, picrinine 5.0, vallesamine 3.0, scholaricine 3.0, 19-epi-scholaricine 3.5 mg, x ± SD
Experimental: as §1, §2, §3, §4
Group and dose: in Test group 1, the ratio of picrinine, vallesamine, scholaricine and 19-epischolaricine by weight was 41:45:28:7, and the other groups and doses thereof were as described in Example 11.
Test index: number of white blood cells (WBCs) and number of eosinophil in bronchoalveolar lavage fluid (BALF) were used as index, and were determined by full-automatic hemocytometer.

[6] = test system: SOD in serum and homogenate of COPD model mouse; assay: Effect on SOD in serum and homogenate of COPD model mouse; conditions: ig 7 d, dose/kg: dexamethasone 1 mg, Test group 1 50, 2 25, 3 10, picrinine 10, vallesamine 6, scholaricine 7, 19-epi-scholaricine 2 mg, x ± SD; for SOD homogenate: lung homogenate
Experimental: as §1, §5, §6, §4
Group and dose: in Test group 1, the ratio of picrinine, vallesamine, scholaricine and 19-epischolaricine by weight was 16:11:12:3, and the other groups and doses thereof were as described in Example 10.
Test index: SOD in serum and lung homogenate was used as index, and was determined by xanthine oxidase method.

[7] = test system: white blood cell count and classification in BALF of COPD model mouse; assay: Effect on white blood cell count and classification in BALF of COPD model mouse; conditions: COPD mouse (LPS plus smoke exposure 30 days), ig 7 d, dose/kg: dexamethasone 1 mg, Test group 1 50, 2 25, 3 10, picrinine 10, vallesamine 6, scholaricine 7, 19-epi-scholaricine 2 mg, x ± SD
Experimental: as §1, §5, §6, §4
Group and dose: in Test group 1, the ratio of picrinine, vallesamine, scholaricine and 19-epischolaricine by weight was 48:40:29:10, and the other groups and doses thereof were as described in Example 10.
Test index: total number of white blood cells and inflammatory cell classification in bronchoalveolar lavage fluid (BALF) were used as indexes, and were determined by full-automatic hemocytometer.

[8] = test system: MDA in serum and BALF of asthma model mouse; assay: Effect on MDA in serum and BALF of asthma model mouse; conditions: ig 7 d, dose/kg: dexamethasone 2.0 mg, Test group 1 50, 2 25, picrinine 5.0, vallesamine 3.0, scholaricine 3.0, 19-epi-scholaricine 3.5 mg, x ± SD; for MDA lavage fluid: BALF
Experimental: as §1, §2, §3, §4
Group and dose: in Test group 1, the ratio of picrinine, vallesamine, scholaricine and 19-epischolaricine by weight was 8:6:5:1, and the other groups and doses thereof were as described in Example 11.
Test index: MDA in serum and BALF was used as index, and was determined by thiobarbituric acid method.

[9] = test system: MDA in serum and homogenate of COPD model mouse; assay: Effect on MDA in serum and homogenate of COPD model mouse; conditions: ig 7 d; for MDA Homogenate: lung homogenate; for MDA Homogenate / MDA Serum: dose/kg: dexamethasone 1 mg, Test group 1 50, 2 25, 3 10, picrinine 10, vallesamine 6, scholaricine 7, 19-epi-scholaricine 2 mg, x ± SD; for content of MDA (serum or homogenate not given): vallesamine 6, scholaricine 7, 19-epi-scholaricine 2 mg/kg
Experimental: as §1, §5, §6, §4
Group and dose: in Test group 1, the ratio of picrinine, vallesamine, scholaricine and 19-epischolaricine by weight was 9:6:5:1, and the other groups and doses thereof were as described in Example 10.
Test index: MDA in serum and homogenate was used as index, and was determined by thibabituric acid method.

[10] = test system: CRP in serum in COPD model mouse; assay: Effect on CRP in serum in COPD model mouse; conditions: ELISA, ig 7 d, dose/kg: dexamethasone 1 mg, Test group 1 50, 2 25, 3 10, picrinine 10, vallesamine 6, scholaricine 7, 19-epi-scholaricine 2 mg, x ± SD
Experimental: as §1, §5, §6, §4
Group and dose: in Test group 1, the ratio of picrinine, vallesamine, scholaricine and 19-epischolaricine by weight was 25:19:20:4, and the other groups and doses thereof were as described in Example 10.
Test index: CRP in serum was used as index, and was determined by enzyme linked immunosorbent assay.

[11] = test system: IL-4 in BALF of asthma model mouse; assay: Effect on IL-4 in BALF of asthma model mouse; conditions: ELISA, ig 7 d, dose/kg: dexamethasone 2.0 mg, Test group 1 50, 2 25, picrinine 5.0, vallesamine 3.0, scholaricine 3.0, 19-epi-scholaricine 3.5 mg, x ± SD
Experimental: as §1, §2, §3, §4
Group and dose: in Test group 1, the ratio of picrinine, vallesamine, scholaricine and 19-epischolaricine by weight was 25:18:15:3, and the other groups and doses thereof were as described in Example 11. […]

Compound	IgE [1] [µg/mL]	SOD lavage fluid [2] [U/mL]	SOD Serum [2] [U/mL]	Eotaxin [3] [pg/mL]	IL-6 [4] [pg/mL]	Eosinophil percentage [5] [%]	Number of WBCs [5]	SOD homogenate [6] [U/mL]	SOD Serum [6] [U/mL]	Leukocyte number [7]	MDA lavage fluid [8] [nmol/mL]	MDA Serum [8] [nmol/mL]	MDA Homogenate [9] [nmol/mL]	MDA Serum [9] [nmol/mL]	CRP [10] [pg/mL]	IL-4 [11] [pg/mL]	Neutrophil number [7]	content of MDA (serum or homogenate not given) [9]
C/C=C1/CN2[C@@H]3C[C@@]45c6ccccc6N[C@]4(O3)[C@@H]2C[C@@H]1[C@H]5C(=O)OC [picrinine]	3.85 ± 0.72	62.32 ± 8.22	70.31 ± 7.30	9.03 ± 1.80	23.9 ± 3.9	6.18 ± 3.61	0.91 ± 0.50 ×10^9/L	56.01 ± 12.78	91.15 ± 10.90	2.1 ± 1.8 ×10^5/mL	3.29 ± 2.07	14.03 ± 5.71	6.17 ± 1.46	11.21 ± 4.46	23.5 ± 2.2	12.60 ± 4.39		
C/C=C1/CN2CC[C@@H]1[C@@](CO)(C(=O)OC)c1[nH]c3ccccc3c1C2 [vallesamine]	3.57 ± 0.99	70.88 ± 8.52	70.53 ± 7.77	8.90 ± 2.36	25.0 ± 3.6	6.48 ± 2.84	0.73 ± 0.35 ×10^9/L	58.43 ± 5.73	91.72 ± 12.34	1.8 ± 1.7 ×10^5/mL	2.92 ± 1.48	13.36 ± 6.10	7.12 ± 1.44	11.07 ± 1.29	23.8 ± 1.9	11.61 ± 2.40	0.75 ± 0.51 ×10^5/mL	significantly decrease
COC(=O)C1=C2Nc3c(O)cccc3[C@@]23CCN2C[C@@H]([C@H](C)O)[C@@H]1C[C@H]23 [19-epi-scholaricine, 19-epischolaricine]	3.55 ± 0.87	71.82 ± 12.39	73.85 ± 7.93	8.74 ± 1.40	23.3 ± 4.1			61.32 ± 9.35		2.0 ± 1.6 ×10^5/mL	2.55 ± 1.47	13.55 ± 4.66	6.03 ± 0.66	10.94 ± 1.67		11.16 ± 3.58		significantly decrease
